Assay results from patent publication US6080733A, “Thioureido-cyclodextrins, utilized in particular to solubilize anti-tumor, and antiparasitic agents and their preparation processes” (Centre National de la Recherche Scientifique, priority 1996, dated 2000).
Values joined by “and” are separate entries in the source; they are usually repeats but may differ in a detail not shown here. Identical values can stand only once.

How the values were obtained:
[1] = solubility in water of the thioureido-cyclodextrins; type: physicochemical
[2] = cited from earlier work

## CO[C@H]1O[C@H](CNC(=S)NC[C@H]2O[C@@H]3O[C@H]4[C@H](O)[C@@H](O)[C@@H](O[C@H]5[C@H](O)[C@@H](O)[C@@H](O[C@H]6[C@H](O)[C@@H](O)[C@@H](O[C@H]7[C@H](O)[C@@H](O)[C@@H](O[C@H]8[C@H](O)[C@@H](O)[C@@H](O[C@H]9[C@H](O)[C@@H](O)[C@@H](O[C@H]2[C@H](O)[C@H]3O)O[C@@H]9CO)O[C@@H]8CO)O[C@@H]7CO)O[C@@H]6CO)O[C@@H]5CO)O[C@@H]4CO)[C@@H](OC(C)=O)[C@H](OC(C)=O)[C@H]1OC(C)=O [compound n°3]
[1]
  solubility in water: 558 g/l and 373 mM

## CNC(=S)NC[C@H]1O[C@@H]2O[C@H]3[C@H](O)[C@@H](O)[C@@H](O[C@H]4[C@H](O)[C@@H](O)[C@@H](O[C@H]5[C@H](O)[C@@H](O)[C@@H](O[C@H]6[C@H](O)[C@@H](O)[C@@H](O[C@H]7[C@H](O)[C@@H](O)[C@@H](O[C@H]8[C@H](O)[C@@H](O)[C@@H](O[C@H]1[C@H](O)[C@H]2O)O[C@@H]8CO)O[C@@H]7CO)O[C@@H]6CO)O[C@@H]5CO)O[C@@H]4CO)O[C@@H]3CO [compound n°1, 6^I -desoxy-6^I -(N'-methylthioureido) cyclomaltoheptaose]
[1]
  solubility: 775000 µg/mL and 640000 µM

## CO[C@H]1O[C@H](CNC(=S)NC[C@H]2O[C@@H]3O[C@H]4[C@H](O)[C@@H](O)[C@@H](O[C@H]5[C@H](O)[C@@H](O)[C@@H](O[C@H]6[C@H](O)[C@@H](O)[C@@H](O[C@H]7[C@H](O)[C@@H](O)[C@@H](O[C@H]8[C@H](O)[C@@H](O)[C@@H](O[C@H]9[C@H](O)[C@@H](O)[C@@H](O[C@H]2[C@H](O)[C@H]3O)O[C@@H]9CO)O[C@@H]8CO)O[C@@H]7CO)O[C@@H]6CO)O[C@@H]5CO)O[C@@H]4CO)[C@@H](O)[C@H](O)[C@H]1O [compound n°2]
[1]
  solubility: 710000 µg/mL and 518000 µM

## CC(=O)O[C@@]12CO[C@@H]1C[C@H](O)[C@@]1(C)C(=O)[C@H](O)C3=C(C)[C@@H](OC(=O)[C@H](O)[C@@H](NC(=O)OC(C)(C)C)c4ccccc4)C[C@@](O)([C@@H](OC(=O)c4ccccc4)[C@H]21)C3(C)C [Taxotere]
[2]; encapsulated in 6^I -S-α-maltosyl-6^I -thiocyclo-maltaheptaose (WO-A-95/19994)
  solubility in water of Taxotere, raised by encapsulation: 6500 µg/mL
[2]; without cyclodextrin
  solubility in water of Taxotere: 4 µg/mL
